From US20240246951A1, “COMPOUND HAVING BIOLOGICAL ACTIVITY SUCH AS ANTIVIRAL ACTIVITY” (NATIONAL CENTER FOR GLOBAL HEALTH AND MEDICINE, priority 2021, published 2024)

System: SARS-CoV-2 variants (TX7-501, TY8-612, QHN001, K1734, K5356)
Type: cell-based
Conditions: variants of Table 4 instead of WK-521; data not shown

CC(C)(C)[C@H](NC(=O)C(F)(F)F)C(=O)N1C[C@H]2[C@@H]([C@H]1C(=O)N[C@@H](C[C@@H]1CCNC1=O)C(=O)c1nc3c(F)cccc3s1)C2(C)C [Compound 245, (1R,2S,5S)-3-((S)-3,3-dimethyl-2-(2,2,2-trifluoroacetamido)butanoyl)-N-((S)-1-(4-fluorobenzo[d]thiazol-2-yl)-1-oxo-3-((S)-2-oxopyrrolidin-3-yl)propan-2-yl)-6,6-dimethyl-3-azabicyclo[3.1.0]hexane-2-carboxamide]
antiviral activity against variants: excellent antiviral activities
